The results in this text go back to ChEMBL document CHEMBL1138993, “Thyroid receptor ligands. Part 5: novel bicyclic agonist ligands selective for the thyroid hormone receptor beta” (Bioorg Med Chem Lett, 2006).

Experiment [1] has as its target T1, Thyroid hormone receptor alpha (Homo sapiens, UniProt P10827).
T1 sequence (P10827 whole entry): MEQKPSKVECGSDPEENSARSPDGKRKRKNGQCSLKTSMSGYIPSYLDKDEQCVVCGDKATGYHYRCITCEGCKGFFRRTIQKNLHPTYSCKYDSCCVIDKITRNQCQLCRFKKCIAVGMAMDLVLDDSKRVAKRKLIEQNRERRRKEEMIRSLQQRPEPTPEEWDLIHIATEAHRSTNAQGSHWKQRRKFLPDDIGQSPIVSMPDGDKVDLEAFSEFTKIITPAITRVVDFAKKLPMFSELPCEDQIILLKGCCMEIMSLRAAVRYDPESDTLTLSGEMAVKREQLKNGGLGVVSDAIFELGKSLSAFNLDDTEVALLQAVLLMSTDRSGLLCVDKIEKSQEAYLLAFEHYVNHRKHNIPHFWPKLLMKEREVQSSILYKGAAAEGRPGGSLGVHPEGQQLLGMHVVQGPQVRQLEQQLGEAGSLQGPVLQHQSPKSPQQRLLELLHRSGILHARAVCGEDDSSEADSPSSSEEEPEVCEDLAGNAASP
Description: Efficacy against TRAF-alpha-1 reporter cells

Experiment [2] concerns the target T2, Thyroid hormone receptor beta (Homo sapiens, UniProt P10828).
T2 sequence (P10828 whole entry): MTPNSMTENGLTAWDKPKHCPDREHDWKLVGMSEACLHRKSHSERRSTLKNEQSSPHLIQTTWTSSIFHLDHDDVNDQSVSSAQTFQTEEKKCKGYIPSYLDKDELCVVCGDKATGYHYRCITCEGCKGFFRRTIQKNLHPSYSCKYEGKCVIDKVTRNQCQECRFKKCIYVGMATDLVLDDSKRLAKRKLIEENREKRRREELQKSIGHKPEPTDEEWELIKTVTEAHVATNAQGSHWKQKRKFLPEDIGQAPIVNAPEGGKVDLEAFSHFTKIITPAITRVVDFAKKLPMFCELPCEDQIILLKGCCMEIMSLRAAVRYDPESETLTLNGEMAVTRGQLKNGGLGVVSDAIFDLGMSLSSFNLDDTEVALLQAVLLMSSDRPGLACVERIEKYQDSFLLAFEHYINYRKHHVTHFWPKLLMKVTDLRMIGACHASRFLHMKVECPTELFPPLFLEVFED
Description: Efficacy against TRAF-beta-1 reporter cells

Experiment [3] has as its target T1, Thyroid hormone receptor alpha. This is another data set of the same source.
Description: Inhibition of human TR-alpha-1 by radioligand binding assay
Experiment [4] has as its target T2, Thyroid hormone receptor beta. This is another data set of the same source.
Description: Inhibition of human TR-beta-1 by radioligand binding assay

On to `Cc1cc2nc(C(=O)O)ccc2c(C)c1Oc1ccc(O)c(C(C)C)c1`, for which the results for the EC50 in experiment [1] and in experiment [2] were 83 nM and 49 nM, respectively. Further, the results for the IC50 in experiment [3] and in experiment [4] were 200 nM and 15 nM, respectively.
In the case of `CC(C)c1cc(Oc2c(Cl)cc3[nH]c(C(=O)O)cc3c2Cl)ccc1O`, the EC50 (as a rule, the concentration needed to bring the measured effect to its halfway point) in experiment [1] worked out at 10 nM. For the same molecule, the IC50 (as a rule, the point on the concentration scale where inhibition reaches its midpoint) in experiment [3] came to 1.4 nM.
Regarding `CC(C)c1cc(Oc2c(Br)cc3c(c2Br)CC(C(=O)O)C3)ccc1O` (stereo not given), the EC50 in experiment [1] was 4.1 nM; in experiment [2] it was 4.3 nM. Besides, the IC50 in experiment [3] was determined as 38 nM; in experiment [4], 8.5 nM.
Regarding `CC(C)c1cc(Oc2c(Cl)cc3[nH]c(C(=O)O)cc(=O)c3c2Cl)ccc1O`, the IC50 in experiment [3] was found to be 3500 nM; in experiment [4], 870 nM.
On to `Cc1cc2[nH]c(C(=O)O)cc(=O)c2c(C)c1Oc1ccc(O)c(C(C)C)c1`, for which the figures for the IC50 in experiment [3] and in experiment [4] were 620 nM and 240 nM, respectively.
For the molecule `CC(C)c1cc(Oc2c(Br)cc3nc(C(=O)O)cc(O)c3c2Br)ccc1O`, the IC50 in experiment [3] was found to be 250 nM; in experiment [4], 51 nM.
Regarding `CC(C)c1cc(Oc2c(Br)cc3[nH]c(C(=O)O)cc3c2Br)ccc1O`, the figures for the EC50 in experiment [1] and in experiment [2] were 10 nM and 4.2 nM, respectively. For the same molecule, the IC50 in experiment [3] worked out at 2.5 nM; in experiment [4], 0.28 nM.
